Results as given in the supplement of paper PMC10307832.

Key:
Test in all cases: relative viability (nuclei count vs DMSO), 5 days (fraction); higher = more cells survive
AZD8055 + Luminespib = compound: COc1ccc(-c2ccc3c(N4CCOC[C@@H]4C)nc(N4CCOC[C@@H]4C)nc3n2)cc1CO [AZD8055] + CCNC(=O)c1noc(-c2cc(C(C)C)c(O)cc2O)c1-c1ccc(CN2CCOCC2)cc1 [Luminespib] (partner 0.01 µM)
In short: (§1)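 Lung cancer cell lines in 1536-well plates were dosed by pin tool the day after seeding, either with one drug alone or with a fixed anchor-drug dose plus five library-drug doses (not always all listed) in √10 steps. After 5 days, cells were fixed and their nuclei stained in one step (final 0.05% Triton X-100, 1% formaldehyde, 1 ug/ml Hoechst), then counted on 4× images. Relative viability is the nuclei count in treated wells divided by that in vehicle wells. Values are medians of duplicate plates.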

AZD8055 + Lapatinib = compound: COc1ccc(-c2ccc3c(N4CCOC[C@@H]4C)nc(N4CCOC[C@@H]4C)nc3n2)cc1CO [AZD8055] + CS(=O)(=O)CCNCc1ccc(-c2ccc3ncnc(Nc4ccc(OCc5cccc(F)c5)c(Cl)c4)c3c2)o1 [Lapatinib] (partner 2 µM)
In short: as §1

AZD8055 + Decitabine = compound: COc1ccc(-c2ccc3c(N4CCOC[C@@H]4C)nc(N4CCOC[C@@H]4C)nc3n2)cc1CO [AZD8055] + Nc1ncn([C@H]2C[C@H](O)[C@@H](CO)O2)c(=O)n1 [Decitabine] (partner 2 µM)
In short: as §1

AZD8055 + Olaparib = compound: COc1ccc(-c2ccc3c(N4CCOC[C@@H]4C)nc(N4CCOC[C@@H]4C)nc3n2)cc1CO [AZD8055] + O=C(c1cc(Cc2n[nH]c(=O)c3ccccc23)ccc1F)N1CCN(C(=O)C2CC2)CC1 [Olaparib] (partner 8 µM)
In short: as §1

Row | Cell Line | relative viability (AZD8055 + Luminespib; first compound 0.01 µM) | relative viability (AZD8055 + Luminespib; first compound 0.03162 µM) | relative viability (AZD8055 + Luminespib; first compound 0.1 µM) | relative viability (AZD8055 + Luminespib; first compound 0.3162 µM) | relative viability (AZD8055 + Luminespib; first compound 1 µM) | relative viability (AZD8055 + Lapatinib; first compound 0.01 µM) | relative viability (AZD8055 + Lapatinib; first compound 0.03162 µM) | relative viability (AZD8055 + Lapatinib; first compound 0.1 µM) | relative viability (AZD8055 + Lapatinib; first compound 0.3162 µM) | relative viability (AZD8055 + Lapatinib; first compound 1 µM) | relative viability (AZD8055 + Decitabine; first compound 0.01 µM) | relative viability (AZD8055 + Decitabine; first compound 0.03162 µM) | relative viability (AZD8055 + Decitabine; first compound 0.1 µM) | relative viability (AZD8055 + Decitabine; first compound 0.3162 µM) | relative viability (AZD8055 + Decitabine; first compound 1 µM) | relative viability (AZD8055 + Olaparib; first compound 0.01 µM) | relative viability (AZD8055 + Olaparib; first compound 0.03162 µM) | relative viability (AZD8055 + Olaparib; first compound 0.1 µM) | relative viability (AZD8055 + Olaparib; first compound 0.3162 µM) | relative viability (AZD8055 + Olaparib; first compound 1 µM)
1 | NCI-H1437 | 1.28 | 1.26 | 1.23 | 0.775 | 0.365 | 1.03 | 0.76 | 0.549 | 0.221 | 0.183 | 0.612 | 0.553 | 0.509 | 0.363 | 0.302 | 0.696 | 0.658 | 0.601 | 0.457 | 0.311
2 | NCI-H2009 | 1.07 | 1.07 | 1.16 | 0.887 | 0.378 | 1.15 | 0.74 | 0.919 | 0.396 | 0.316 | 0.376 | 0.451 | 0.376 | 0.305 | 0.268 | 0.677 | 0.861 | 0.634 | 0.344 | 0.254
3 | NCI-H1651 | 0.925 | 0.798 | 0.779 | 0.412 | 0.313 | 0.844 | 0.569 | 0.585 | 0.403 | 0.324 | 0.69 | 0.319 | 0.481 | 0.416 | 0.347 | 0.193 | 0.191 | 0.193 | 0.222 | 0.25
4 | NCI-H1666 | 1.06 | 1.03 | 0.977 | 0.772 | 0.693 | 0.587 | 0.488 | 0.488 | 0.355 | 0.362 | 0.744 | 0.685 | 0.627 | 0.702 | 0.685 | 0.875 | 0.81 | 0.771 | 0.714 | 0.674
5 | NCI-H1734 | 0.199 | 0.167 | 0.194 | 0.151 | 0.183 | 1.17 | 0.789 | 0.57 | 0.308 | 0.242 | 0.551 | 0.344 | 0.433 | 0.299 | 0.234 | 0.675 | 0.555 | 0.458 | 0.298 | 0.199
6 | EPLC-272H | 0.182 | 0.12 | 0.178 | 0.22 | 0.182 | 0.735 | 0.75 | 0.549 | 0.471 | 0.459 | 0.41 | 0.265 | 0.272 | 0.248 | 0.226 | 0.627 | 0.589 | 0.333 | 0.281 | 0.245
7 | NCI-H2023 | 0.591 | 0.411 | 0.138 | 0.1 | 0.128 | 0.971 | 0.611 | 0.361 | 0.148 | 0.132 | 0.243 | 0.161 | 0.175 | 0.129 | 0.118 | 0.434 | 0.402 | 0.224 | 0.148 | 0.142
8 | BEN | 0.242 | 0.179 | 0.305 | 0.216 | 0.192 | 0.607 | 0.402 | 0.353 | 0.317 | 0.304 | 0.691 | 0.63 | 0.435 | 0.49 | 0.453 | 1.15 | 0.884 | 0.658 | 0.455 | 0.518
9 | COR-L 105 | 0.733 | 0.912 | 0.349 | 0.3 | 0.268 | 0.353 | 0.284 | 0.318 | 0.346 | 0.389 | 0.718 | 0.714 | 0.579 | 0.445 | 0.431 | 0.738 | 0.741 | 0.707 | 0.455 | 0.448
10 | ABC-1 | 0.434 | 0.521 | 0.289 | 0.331 | 0.284 | 1.2 | 0.939 | 1.2 | 0.652 | 0.611 | 1.16 | 1.51 | 0.825 | 0.697 | 0.576 | 1.3 | 1.37 | 0.992 | 0.717 | 0.907
11 | HCC-15 | 0.304 | 0.39 | 0.262 | 0.208 | 0.242 | 0.834 | 0.877 | 0.886 | 0.474 | 0.333 | 0.667 | 0.587 | 0.597 | 0.319 | 0.255 | 0.776 | 0.697 | 0.643 | 0.47 | 0.35
12 | NCI-H2170 | 0.633 | 0.715 | 0.403 | 0.233 | 0.165 | 0.242 | 0.231 | 0.229 | 0.231 | 0.228 | 0.537 | 0.363 | 0.456 | 0.252 | 0.218 | 0.67 | 0.572 | 0.37 | 0.198 | 0.183
13 | PC-3 [JPC-3] | 0.717 | 0.565 | 0.693 | 0.469 | 0.332 | 0.392 | 0.393 | 0.333 | 0.322 | 0.302 | 0.902 | 0.912 | 0.797 | 0.758 | 0.614 | 1.19 | 1.26 | 1.13 | 0.798 | 0.61
14 | NCI-H1993 | 0.74 | 0.593 | 0.497 | 0.402 | 0.471 | 0.685 | 0.766 | 0.75 | 0.668 | 0.672 | 0.49 | 0.488 | 0.49 | 0.444 | 0.386 | 1.02 | 0.793 | 0.602 | 0.409 | 0.434
15 | NCI-H358 | 0.33 | 0.336 | 0.392 | 0.123 | 0.0919 | 0.444 | 0.41 | 0.394 | 0.254 | 0.246 | 0.22 | 0.24 | 0.177 | 0.134 | 0.113 | 0.563 | 0.594 | 0.543 | 0.202 | 0.12
16 | NCI-H1915 | 0.777 | 0.727 | 0.598 | 0.5 | 0.322 | 1.1 | 0.876 | 1.01 | 0.655 | 0.522 | 0.272 | 0.251 | 0.258 | 0.254 | 0.244 | 0.257 | 0.262 | 0.289 | 0.238 | 0.204
